Source: the NIST ThermoML archive (doi:10.1016/j.jct.2017.05.001)

Assay: wn = mass fraction of the nth substance listed
Details: Liquid; for mass density: Vibrating tube method

OCCN(CCO)CCO [triethanolamine] + O
viscosity [mPa·s]
Details	w1 = 0.0992	w1 = 0.1	w1 = 0.2	w1 = 0.2991	w1 = 0.3	w1 = 0.4
293.15 K, 100 kPa, Concentric cylinders viscometry	–	1.41	2.066	–	3.197	5.34
293.15 K, 100 kPa, Falling or rolling sphere viscometry	1.429	–	2.037	3.208	–	5.317
293.15 K, 5000 kPa, Falling or rolling sphere viscometry	1.459	–	2.036	3.212	–	5.311
293.15 K, 10000 kPa, Falling or rolling sphere viscometry	1.455	–	2.035	3.229	–	5.331
293.15 K, 15000 kPa, Falling or rolling sphere viscometry	1.454	–	2.04	3.18	–	5.376
293.15 K, 20000 kPa, Falling or rolling sphere viscometry	1.45	–	2.042	3.234	–	5.417
293.15 K, 25000 kPa, Falling or rolling sphere viscometry	1.447	–	2.044	3.242	–	5.445
293.15 K, 30000 kPa, Falling or rolling sphere viscometry	1.446	–	2.046	3.245	–	5.5
293.15 K, 40000 kPa, Falling or rolling sphere viscometry	1.443	–	2.051	3.288	–	5.549
293.15 K, 60000 kPa, Falling or rolling sphere viscometry	1.44	–	2.064	3.325	–	5.675
293.15 K, 80000 kPa, Falling or rolling sphere viscometry	1.447	–	2.08	3.373	–	5.792
293.15 K, 100000 kPa, Falling or rolling sphere viscometry	1.448	–	2.098	3.446	–	5.987
313.15 K, 100 kPa, Concentric cylinders viscometry	–	0.881	1.244	–	1.786	2.756
313.15 K, 100 kPa, Falling or rolling sphere viscometry	0.909	–	1.203	1.786	–	2.788
313.15 K, 5000 kPa, Falling or rolling sphere viscometry	0.8937	–	1.208	1.797	–	2.794
313.15 K, 10000 kPa, Falling or rolling sphere viscometry	0.8956	–	1.21	1.808	–	2.797
313.15 K, 15000 kPa, Falling or rolling sphere viscometry	0.8964	–	1.214	1.818	–	2.828
313.15 K, 20000 kPa, Falling or rolling sphere viscometry	0.8965	–	1.22	1.832	–	2.852
313.15 K, 25000 kPa, Falling or rolling sphere viscometry	0.8977	–	1.225	1.835	–	2.866
313.15 K, 30000 kPa, Falling or rolling sphere viscometry	0.8992	–	1.228	1.846	–	2.889
313.15 K, 40000 kPa, Falling or rolling sphere viscometry	0.9027	–	1.231	1.861	–	2.928
313.15 K, 60000 kPa, Falling or rolling sphere viscometry	0.91	–	1.251	1.893	–	3.028
313.15 K, 80000 kPa, Falling or rolling sphere viscometry	0.9177	–	1.276	1.933	–	3.115
313.15 K, 100000 kPa, Falling or rolling sphere viscometry	0.9261	–	1.282	1.98	–	3.193
333.15 K, 100 kPa, Concentric cylinders viscometry	–	0.621	0.821	–	1.173	1.669
333.15 K, 100 kPa, Falling or rolling sphere viscometry	0.6124	–	0.8083	1.147	–	1.67
333.15 K, 5000 kPa, Falling or rolling sphere viscometry	0.6114	–	0.8084	1.154	–	1.68
333.15 K, 10000 kPa, Falling or rolling sphere viscometry	0.6149	–	0.8125	1.164	–	1.698
333.15 K, 15000 kPa, Falling or rolling sphere viscometry	0.6154	–	0.8177	1.168	–	1.704
333.15 K, 20000 kPa, Falling or rolling sphere viscometry	0.6178	–	0.82	1.178	–	1.72
333.15 K, 25000 kPa, Falling or rolling sphere viscometry	0.6198	–	0.8238	1.181	–	1.738
333.15 K, 30000 kPa, Falling or rolling sphere viscometry	0.6221	–	0.8283	1.189	–	1.748
333.15 K, 40000 kPa, Falling or rolling sphere viscometry	0.625	–	0.8329	1.203	–	1.771
333.15 K, 60000 kPa, Falling or rolling sphere viscometry	0.6327	–	0.8473	1.225	–	1.826
333.15 K, 80000 kPa, Falling or rolling sphere viscometry	0.6418	–	0.8631	1.253	–	1.878
333.15 K, 100000 kPa, Falling or rolling sphere viscometry	0.6513	–	0.8789	1.293	–	1.964

mass density [kg/m3]
Details	w1 = 0.0992	w1 = 0.2	w1 = 0.2991	w1 = 0.4
293.15 K, 100 kPa	1013.3	1029.5	1046.1	1065.2
293.15 K, 500 kPa	1013.5	1029.5	1046.2	1065.3
293.15 K, 1000 kPa	1013.7	1029.7	1046.4	1065.4
293.15 K, 2000 kPa	1014.2	1030.2	1046.8	1065.8
293.15 K, 5000 kPa	1015.5	1031.4	1047.9	1066.9
293.15 K, 10000 kPa	1017.6	1033.4	1049.8	1068.7
293.15 K, 15000 kPa	1019.6	1035.4	1051.7	1070.5
293.15 K, 20000 kPa	1021.8	1037.4	1053.7	1072.3
293.15 K, 30000 kPa	1026	1041.4	1057.4	1075.8
293.15 K, 40000 kPa	1030	1045.2	1061.1	1079.3
293.15 K, 50000 kPa	1034	1049	1064.7	1082.7
293.15 K, 60000 kPa	1037.9	1052.7	1068.3	1086.1
293.15 K, 70000 kPa	1041.8	1056.4	1071.8	1089.4
293.15 K, 80000 kPa	1045.5	1059.8	1075.1	1092.5
293.15 K, 90000 kPa	1049.1	1063.4	1078.5	1095.8
293.15 K, 100000 kPa	1052.9	1066.9	1081.8	1098.9
293.15 K, 110000 kPa	1056.3	1070.2	1084.9	1101.8
293.15 K, 120000 kPa	1059.8	1073.6	1088.2	1104.9
293.15 K, 130000 kPa	1063.3	1077	1091.5	1107.9
293.15 K, 140000 kPa	1066.5	1080.1	1094.5	1110.8
313.15 K, 100 kPa	1006.9	1021.9	1037.4	1055.1
313.15 K, 500 kPa	1007	1022.1	1037.5	1055.3
313.15 K, 1000 kPa	1007.2	1022.3	1037.7	1055.4
313.15 K, 2000 kPa	1007.6	1022.7	1038.1	1055.8
313.15 K, 5000 kPa	1008.9	1023.9	1039.3	1056.9
313.15 K, 10000 kPa	1010.9	1025.9	1041.2	1058.8
313.15 K, 15000 kPa	1013	1027.8	1043.1	1060.6
313.15 K, 20000 kPa	1015	1029.7	1045	1062.4
313.15 K, 30000 kPa	1019.1	1033.7	1048.8	1066
313.15 K, 40000 kPa	1023	1037.6	1052.6	1069.7
313.15 K, 50000 kPa	1026.8	1041.2	1056.1	1073.2
313.15 K, 60000 kPa	1030.7	1044.9	1059.7	1076.6
313.15 K, 70000 kPa	1034.4	1048.5	1063.2	1079.9
313.15 K, 80000 kPa	1038	1051.9	1066.6	1083.1
313.15 K, 90000 kPa	1041.6	1055.3	1069.9	1086.3
313.15 K, 100000 kPa	1045.2	1058.8	1073.3	1089.5
313.15 K, 110000 kPa	1048.6	1062.1	1076.4	1092.7
313.15 K, 120000 kPa	1052	1065.6	1079.6	1095.7
313.15 K, 130000 kPa	1055.3	1068.7	1082.8	1098.7
313.15 K, 140000 kPa	1058.5	1071.9	1085.9	1101.7
333.15 K, 100 kPa	997.2	1011.6	1026.3	1043.1
333.15 K, 500 kPa	997.5	1011.8	1026.5	1043.3
333.15 K, 1000 kPa	997.7	1012	1026.7	1043.5
333.15 K, 2000 kPa	998.1	1012.4	1027.2	1043.9
333.15 K, 5000 kPa	999.3	1013.6	1028.3	1045.1
333.15 K, 10000 kPa	1001.4	1015.7	1030.4	1047.1
333.15 K, 15000 kPa	1003.5	1017.7	1032.4	1049
333.15 K, 20000 kPa	1005.5	1019.7	1034.3	1050.9
333.15 K, 30000 kPa	1009.6	1023.6	1038.2	1054.7
333.15 K, 40000 kPa	1013.6	1027.7	1042.1	1058.4
333.15 K, 50000 kPa	1017.5	1031.4	1045.7	1062
333.15 K, 60000 kPa	1021.3	1035	1049.4	1065.6
333.15 K, 70000 kPa	1024.8	1038.6	1052.9	1069
333.15 K, 80000 kPa	1028.6	1042.1	1056.3	1072.3
333.15 K, 90000 kPa	1032	1045.6	1059.7	1075.5
333.15 K, 100000 kPa	1035.6	1049.1	1063.2	1078.9
333.15 K, 110000 kPa	1039	1052.3	1066.3	1082
333.15 K, 120000 kPa	1042.5	1055.8	1069.8	1085.3
